Results: patent publication US6858748B1, “Treatment of colon cancer” (Research Foundation of the University of Central Florida, priority 2001, dated 2005)

Assays:
[1] = system: white mice; test: Animal toxicity bioassay (acute toxicity, intraperitoneal); assay type: in vivo; details: 14 days observation, Litchfield and Wilkinson
Experimental: Acute toxicity was studied on white mice of both sexes with weight ranging between 18-26 grams under intraperitoneal injection of 2% solution of tested compound in starch (the compound was dissolved in starch slime and injected) on the basis of 0.1 ml of solution per 10 g of the animal weight Each dose was tested on the group of 6 animals that were observed during 14 days period. (This method was approved by the Pharmacology committee of Russian Ministry of Health and has been widely used since 1968.) Averaged lethal dose (LD50) of the compound was computed using results of experiments on 5-7 groups of animals using method of Litchfield and Wilkinson. (Belenkii M. L. “Elements of quantative determination of the pharmacological effect,” Leningrad, 1963, 71 pages).

[2] = system: human colon cancer cells (ATCC CCL220); test: Cytotoxicity assay (MTS/PMS growth inhibition); assay type: cell-based; details: approximately 48 hours with test compound, MTS/PMS readout, concentration not given
Experimental: The antitumor activity against human colon cancer cells of the novel compounds (as earlier reported) was realized by the following procedure which determines the inhibitory effect of test samples on the growth of human colon cancer cells (ATCC CCL220). The CCL220 cells are grown in RPMI 1640 media+10% Fetal bovine serum+1% Antibiotic/Antimycotic for approximately 48 hours at 37° C./5% CO2 in the presence of the test compound.
Growth/Non-Growth of the cells (e.g., cell density) is determined using Promega's MTS/PMS assay system. MTS (3-(4,5-dimethylthiazol-2-yl)-5-(3-carboxymethoxyphenyl)-2-(4-sulfophenyl)-2H-tetrazolium, inner salt) is an aqueous compound that is reduced to soluble formazan by the presence of NADH formed by dehydrogenases present within the CCL220 cells. The absorbance of the formazan can be measured at 490 nm and is directly proportional to the number of living cells present in the culture. PMS (Phenazine Methosulfate) is added an electron coupling reagent and greatly increases the rate of reduction. […]
In order to establish the accuracy of this assay a Positive Control consisting of 50 μM Methotrexate should not decrease the net absorbance to less than 90% of the Negative Control (CCL220 cells are somewhat resistant to methotrexate) is utilized.

[3] = Solubility in organic solvents; assay type: physicochemical
[4] = Stability in solution; assay type: physicochemical; details: decomposes quickly when solution is heated or stored for a long time, forming OF-12
[5] = system: Mice; details: cited from earlier work

SMILES | LD50 [1] | percent activity against human colon cancer [2] | Solubility ([3]; DMSO, DMFA, dichloroethane, acetonitrile) | Solubility ([3]; hexane) | Stability in solutions [4] | IPN-Mice LD50 [5]
CCOc1ccc(C(Cl)=CC(=NN=C2c3ccccc3-c3ccccc32)C(=O)OC)cc1 [3F-19, 4-Chloro-4-(4-ethoxy-phenyl)-2-(fluoren-9-ylidene-hydrazono)-but-3-enoic acid methyl ester] | > 200 mg/kg | 100% |  |  |  | 
CCOc1ccc(C(=O)CC(O)(NN=C2c3ccccc3-c3ccccc32)C(=O)OC)cc1 (centres unmarked) [OF-13, 4-(4-Ethoxy-phenyl)-2-(N′-fluoren-9-ylidene-hydrazino)-2-hydroxy-4-oxo-butyric acid methyl ester] | > 1500 mg/kg | 100% | highly soluble | insoluble | not stable in solutions | 
O=c1[nH]cc(F)c(=O)[nH]1 [5-FU, fluorouracil] |  |  |  |  |  | 230 mg/kg
